Columns and labels:
Type in all cases: in vivo
Stellaria media [1] = assay: Herbicidal post-emergence action (greenhouse pots), STEME; conditions: 1280 g/ha, visual rating about 3 weeks after treatment vs untreated controls
In short: (§1)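 Compounds were applied at 1280 g/ha to the green parts of one-leaf-stage greenhouse weeds, using WP/EC formulations in 600 L/ha water plus 0.5% additive. Visual percent activity was scored around 3 weeks later relative to untreated plants, with 100% meaning plant death.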

Lolium rigidum [2] = assay: Herbicidal pre-emergence action (greenhouse pots), LOLRI; conditions: 1280 g/ha, visual scoring after about 3 weeks vs untreated controls
Source text: In the examples and tables below, the following abbreviations are used: • Undesired Plants/Weeds: • ABUTH: Abutilon theophrasti • AGSTE: Agrostis tenuis • AMARE Amaranthus retroflexus • ECHCG: Echinochloa crus-galli • LOLRI: Lolium rigidum • MATIN: Matricaria inodora • POAAN: Poa annua • SETVI: Setaria viridis • STEME: Stellaria media A. Herbicidal Early Post-Emergence Action Seeds of mono- and dicotyledonous weed plants were placed in plastic pots in sandy loam soil (doubly sown with one species each of mono- or dicotyledonous weed plants per pot) and covered with soil. The compounds of the invention, formulated in the form of wettable powders (WP) or as emulsion concentrates (EC), were then applied onto the surface of the covering soil as aqueous suspension or emulsion with addition of 0.5% additive at a water application rate of 600 liters per hectare (converted). After the treatment, the pots were placed in a greenhouse and kept under good growth conditions for the test plants. After about 3 weeks, the effect of the preparations was scored visually in comparison with untreated controls as percentages. For example, 100% activity=the plants have died, 0% activity=like untreated control plants. Tables C1-C8 below show the effects of selected compounds of the general formula (I) according to Table 1 above on various harmful plants and an application rate corresponding to 1280 g/ha, which were obtained by the experimental procedure mentioned above.

Abutilon theophrasti [3] = assay: Herbicidal post-emergence action (greenhouse pots), ABUTH; conditions: 1280 g/ha, visual rating about 3 weeks after treatment vs untreated controls
In short: as §1

Amaranthus retroflexus [4] = assay: Herbicidal pre-emergence action (greenhouse pots), AMARE; conditions: 1280 g/ha, visual scoring after about 3 weeks vs untreated controls
In short: (§2)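 Compounds are applied at 1280 g/ha to the surface of soil covering freshly sown weed seeds. Spray is aqueous suspension or emulsion of WP or EC with 0.5% additive at 600 L/ha. Pots grow in the greenhouse, and visual % activity against untreated controls is rated after about 3 weeks.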

Echinochloa crus-galli [5] = assay: Herbicidal pre-emergence action (greenhouse pots), ECHCG; conditions: 1280 g/ha, visual scoring after about 3 weeks vs untreated controls
In short: as §2

Amaranthus retroflexus [6] = assay: Herbicidal post-emergence action (greenhouse pots), AMARE; conditions: 1280 g/ha, visual rating about 3 weeks after treatment vs untreated controls
In short: as §1

Matricaria inodora [7] = assay: Herbicidal pre-emergence action (greenhouse pots), MATIN; conditions: 1280 g/ha, visual scoring after about 3 weeks vs untreated controls
In short: as §2

Abutilon theophrasti [8] = assay: Herbicidal pre-emergence action (greenhouse pots), ABUTH; conditions: 1280 g/ha, visual scoring after about 3 weeks vs untreated controls
In short: as §2

Echinochloa crus-galli [9] = assay: Herbicidal post-emergence action (greenhouse pots), ECHCG; conditions: 1280 g/ha, rated after about 3 weeks, 100% = plants have died, 0% = like untreated control plants
In short: as §1

Agrostis tenuis = assay: Herbicidal early post-emergence action (96-well microtiter plates), AGSTE; conditions: 1900 g/ha, scored 9 to 12 days after treatment, 100% = plants have died, 0% = like untreated control plants
In short: (§3)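 Activity was scored by eye 9 to 12 days after treatment (100% = plants dead, 0% = like untreated controls). Spraying used emulsion concentrates at 1900 g/ha in 2200 L/ha water, applied to cotyledon-stage seedlings raised 5 to 7 days in quartz sand in 96-well plates under controlled conditions.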

Lolium rigidum [10] = assay: Herbicidal post-emergence action (greenhouse pots), LOLRI; conditions: 1280 g/ha, rated after about 3 weeks, 100% = plants have died, 0% = like untreated control plants
Source text: (§4) In the examples and tables below, the following abbreviations are used: • Undesired Plants/Weeds: • ABUTH: Abutilon theophrasti • AGSTE: Agrostis tenuis • AMARE Amaranthus retroflexus • ECHCG: Echinochloa crus-galli • LOLRI: Lolium rigidum • MATIN: Matricaria inodora • POAAN: Poa annua • SETVI: Setaria viridis • STEME: Stellaria media A. Herbicidal Early Post-Emergence Action Seeds of mono- and dicotyledonous weed plants were placed in plastic pots in sandy loam soil (doubly sown with in each case one species of mono- or dicotyledonous weed plants per pot), covered with soil and cultivated in a greenhouse under controlled growth conditions. 2 to 3 weeks after sowing, the test plants were treated at the one-leaf stage. The compounds of the invention, formulated in the form of wettable powders (WP) or as emulsion concentrates (EC), were applied onto the green parts of the plants as aqueous suspension or emulsion with addition of 0.5% additive at a water application rate of 600 liters per hectare (converted). After the test plants had been kept in the greenhouse under optimum growth conditions for about 3 weeks, the activity of the preparations was rated visually in comparison to untreated controls. For example, 100% activity=the plants have died, 0% activity=like untreated control plants. Tables B1-B8 below show the effects of selected compounds of the general formula (I) according to Table 1 above on various harmful plants and an application rate corresponding to 1280 g/ha, which were obtained by the experimental procedure mentioned above.

Poa annua [11] = assay: Herbicidal early post-emergence action (96-well microtiter plates), POAAN; conditions: 1900 g/ha, scored 9 to 12 days after treatment, 100% = plants have died, 0% = like untreated control plants
In short: as §3

Poa annua [12] = assay: Herbicidal pre-emergence action (greenhouse pots), POAAN; conditions: 1280 g/ha, visual scoring after about 3 weeks vs untreated controls
In short: as §2

Poa annua [13] = assay: Herbicidal post-emergence action (greenhouse pots), POAAN; conditions: 1280 g/ha, visual rating about 3 weeks after treatment vs untreated controls
In short: as §1

Setaria viridis [14] = assay: Herbicidal pre-emergence action (greenhouse pots), SETVI; conditions: 1280 g/ha, visual scoring after about 3 weeks vs untreated controls
In short: as §2

Stellaria media [15] = assay: Herbicidal pre-emergence action (greenhouse pots), STEME; conditions: 1280 g/ha, visual scoring after about 3 weeks vs untreated controls
In short: as §2

Setaria viridis [16] = assay: Herbicidal post-emergence action (greenhouse pots), SETVI; conditions: 1280 g/ha, rated after about 3 weeks, 100% = plants have died, 0% = like untreated control plants
In short: as §1

Matricaria inodora [17] = assay: Herbicidal post-emergence action (greenhouse pots), MATIN; conditions: 1280 g/ha, visual rating about 3 weeks after treatment vs untreated controls
Source text: as §4

Compound: N#Cc1cccc(Nc2ncc(F)cn2)c1Oc1ccc(F)cc1 [Example 1-267]
- herbicidal activity STEME (Stellaria media [1]): 100%
- herbicidal activity LOLRI (Lolium rigidum [2]): 100%
- herbicidal activity ABUTH (Abutilon theophrasti [3]): 100%
- herbicidal activity AMARE (Amaranthus retroflexus [4]): 100%
- herbicidal activity ECHCG (Echinochloa crus-galli [5]): 100%
- herbicidal activity AMARE (Amaranthus retroflexus [6]): 100%
- herbicidal activity MATIN (Matricaria inodora [7]): 100%
- herbicidal activity ABUTH (Abutilon theophrasti [8]): 100%
- ECHCG (herbicidal activity, rated visually in comparison to untreated controls) (Echinochloa crus-galli [9]): 100%
- AGSTE (herbicidal activity, scored visually in comparison to untreated controls) (Agrostis tenuis): 100%
- LOLRI (herbicidal activity, rated visually in comparison to untreated controls) (Lolium rigidum [10]): 90%
- POAAN (herbicidal activity, scored visually in comparison to untreated controls) (Poa annua [11]): 100%
- herbicidal activity POAAN (Poa annua [12]): 100%
- herbicidal activity POAAN (Poa annua [13]): 100%
- herbicidal activity SETVI (Setaria viridis [14]): 100%
- herbicidal activity STEME (Stellaria media [15]): 100%

Compound: N#Cc1cccc(Nc2ncc(Cl)cn2)c1Oc1ccc(F)cc1 [Example 1-286]
- herbicidal activity STEME (Stellaria media [1]): 100%
- herbicidal activity LOLRI (Lolium rigidum [2]): 90%
- herbicidal activity ABUTH (Abutilon theophrasti [3]): 100%
- herbicidal activity AMARE (Amaranthus retroflexus [4]): 100%
- herbicidal activity AMARE (Amaranthus retroflexus [6]): 100%
- herbicidal activity MATIN (Matricaria inodora [7]): 100%
- herbicidal activity ABUTH (Abutilon theophrasti [8]): 90%
- ECHCG (herbicidal activity, rated visually in comparison to untreated controls) (Echinochloa crus-galli [9]): 100%
- AGSTE (herbicidal activity, scored visually in comparison to untreated controls) (Agrostis tenuis): 100%
- LOLRI (herbicidal activity, rated visually in comparison to untreated controls) (Lolium rigidum [10]): 90%
- POAAN (herbicidal activity, scored visually in comparison to untreated controls) (Poa annua [11]): 100%
- SETVI (herbicidal activity, rated visually in comparison to untreated controls) (Setaria viridis [16]): 100%
- herbicidal activity POAAN (Poa annua [12]): 100%
- herbicidal activity POAAN (Poa annua [13]): 100%
- herbicidal activity SETVI (Setaria viridis [14]): 100%
- herbicidal activity STEME (Stellaria media [15]): 100%

Compound: N#Cc1cccc(Nc2ncc(Cl)cn2)c1Oc1ccc(F)nc1 [Example 3-55]
- herbicidal activity STEME (Stellaria media [1]): 100%
- herbicidal activity LOLRI (Lolium rigidum [2]): 100%
- herbicidal activity ABUTH (Abutilon theophrasti [3]): 100%
- herbicidal activity AMARE (Amaranthus retroflexus [4]): 100%
- herbicidal activity ECHCG (Echinochloa crus-galli [5]): 100%
- herbicidal activity AMARE (Amaranthus retroflexus [6]): 100%
- herbicidal activity MATIN (Matricaria inodora [7]): 100%
- herbicidal activity ABUTH (Abutilon theophrasti [8]): 100%
- AGSTE (herbicidal activity, scored visually in comparison to untreated controls) (Agrostis tenuis): 100%
- LOLRI (herbicidal activity, rated visually in comparison to untreated controls) (Lolium rigidum [10]): 90%
- POAAN (herbicidal activity, scored visually in comparison to untreated controls) (Poa annua [11]): 100%
- SETVI (herbicidal activity, rated visually in comparison to untreated controls) (Setaria viridis [16]): 90%
- herbicidal activity MATIN (Matricaria inodora [17]): 90%
- herbicidal activity POAAN (Poa annua [12]): 100%
- herbicidal activity POAAN (Poa annua [13]): 100%
- herbicidal activity SETVI (Setaria viridis [14]): 100%
- herbicidal activity STEME (Stellaria media [15]): 100%

Compound: N#Cc1cccc(Nc2ncc(F)cn2)c1Oc1ccc(F)c(F)c1 [Example 1-272]
- herbicidal activity STEME (Stellaria media [1]): 100%
- herbicidal activity LOLRI (Lolium rigidum [2]): 100%
- herbicidal activity ABUTH (Abutilon theophrasti [3]): 100%
- herbicidal activity AMARE (Amaranthus retroflexus [4]): 100%
- herbicidal activity ECHCG (Echinochloa crus-galli [5]): 100%
- herbicidal activity AMARE (Amaranthus retroflexus [6]): 100%
- herbicidal activity MATIN (Matricaria inodora [7]): 100%
- herbicidal activity ABUTH (Abutilon theophrasti [8]): 100%
- ECHCG (herbicidal activity, rated visually in comparison to untreated controls) (Echinochloa crus-galli [9]): 100%
- AGSTE (herbicidal activity, scored visually in comparison to untreated controls) (Agrostis tenuis): 100%
- LOLRI (herbicidal activity, rated visually in comparison to untreated controls) (Lolium rigidum [10]): 100%
- POAAN (herbicidal activity, scored visually in comparison to untreated controls) (Poa annua [11]): 100%
- SETVI (herbicidal activity, rated visually in comparison to untreated controls) (Setaria viridis [16]): 100%
- herbicidal activity MATIN (Matricaria inodora [17]): 100%
- herbicidal activity POAAN (Poa annua [12]): 100%
- herbicidal activity POAAN (Poa annua [13]): 100%
- herbicidal activity SETVI (Setaria viridis [14]): 100%
- herbicidal activity STEME (Stellaria media [15]): 100%

Compound: Fc1ccc(Oc2c(F)cccc2Nc2ncc(Cl)cn2)cc1 [Example 1-204]
- herbicidal activity STEME (Stellaria media [1]): 100%
- herbicidal activity ABUTH (Abutilon theophrasti [3]): 100%
- herbicidal activity AMARE (Amaranthus retroflexus [4]): 100%
- herbicidal activity ECHCG (Echinochloa crus-galli [5]): 100%
- herbicidal activity MATIN (Matricaria inodora [7]): 90%
- ECHCG (herbicidal activity, rated visually in comparison to untreated controls) (Echinochloa crus-galli [9]): 100%
- AGSTE (herbicidal activity, scored visually in comparison to untreated controls) (Agrostis tenuis): 100%
- LOLRI (herbicidal activity, rated visually in comparison to untreated controls) (Lolium rigidum [10]): 90%
- POAAN (herbicidal activity, scored visually in comparison to untreated controls) (Poa annua [11]): 100%
- SETVI (herbicidal activity, rated visually in comparison to untreated controls) (Setaria viridis [16]): 100%
- herbicidal activity POAAN (Poa annua [12]): 100%
- herbicidal activity POAAN (Poa annua [13]): 100%
- herbicidal activity SETVI (Setaria viridis [14]): 100%

Compound: Fc1ccc(Oc2c(Cl)cccc2Nc2ncc(Cl)cn2)cc1 [Example 1-235]
- herbicidal activity STEME (Stellaria media [1]): 100%
- herbicidal activity ABUTH (Abutilon theophrasti [3]): 100%
- herbicidal activity AMARE (Amaranthus retroflexus [4]): 100%
- herbicidal activity ECHCG (Echinochloa crus-galli [5]): 90%
- herbicidal activity AMARE (Amaranthus retroflexus [6]): 100%
- herbicidal activity MATIN (Matricaria inodora [7]): 100%
- ECHCG (herbicidal activity, rated visually in comparison to untreated controls) (Echinochloa crus-galli [9]): 100%
- AGSTE (herbicidal activity, scored visually in comparison to untreated controls) (Agrostis tenuis): 100%
- POAAN (herbicidal activity, scored visually in comparison to untreated controls) (Poa annua [11]): 100%
- herbicidal activity MATIN (Matricaria inodora [17]): 80%
- herbicidal activity POAAN (Poa annua [12]): 100%
- herbicidal activity POAAN (Poa annua [13]): 100%
- herbicidal activity SETVI (Setaria viridis [14]): 100%
- herbicidal activity STEME (Stellaria media [15]): 100%

Source: patent US12415786B2, “Substituted 2-heteroarylaminobenzenes and the salts thereof and their use as herbicidal agents” (Bayer Aktiengesellschaft, priority 2019, dated 2025)
